The values that follow come from US20160368870A1, “OLEFIN SUBSTITUTED OXINDOLES HAVING AMPK ACTIVITY” (BOEHRINGER INGELHEIM INTERNATIONAL GMBH, priority 2013, published 2016).

In this experiment the target is T1, AMPK beta 1 (Homo sapiens, UniProt Q13131+Q9Y478).
T1 construct: in-cell-ELISA for phospho-ACC (Acetyl-CoA carboxylase 1) in HepG2 cells (liver); endogenous in cells; host or cells: HepG2
T1 sequence (Q9Y478 whole entry): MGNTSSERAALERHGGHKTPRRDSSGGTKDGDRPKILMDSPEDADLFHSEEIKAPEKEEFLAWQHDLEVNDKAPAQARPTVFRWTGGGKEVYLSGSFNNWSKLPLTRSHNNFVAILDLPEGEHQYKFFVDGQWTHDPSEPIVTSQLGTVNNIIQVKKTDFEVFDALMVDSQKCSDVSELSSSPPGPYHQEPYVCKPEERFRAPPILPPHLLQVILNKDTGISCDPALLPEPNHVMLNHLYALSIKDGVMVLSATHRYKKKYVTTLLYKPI
T1 sequence (Q13131 whole entry): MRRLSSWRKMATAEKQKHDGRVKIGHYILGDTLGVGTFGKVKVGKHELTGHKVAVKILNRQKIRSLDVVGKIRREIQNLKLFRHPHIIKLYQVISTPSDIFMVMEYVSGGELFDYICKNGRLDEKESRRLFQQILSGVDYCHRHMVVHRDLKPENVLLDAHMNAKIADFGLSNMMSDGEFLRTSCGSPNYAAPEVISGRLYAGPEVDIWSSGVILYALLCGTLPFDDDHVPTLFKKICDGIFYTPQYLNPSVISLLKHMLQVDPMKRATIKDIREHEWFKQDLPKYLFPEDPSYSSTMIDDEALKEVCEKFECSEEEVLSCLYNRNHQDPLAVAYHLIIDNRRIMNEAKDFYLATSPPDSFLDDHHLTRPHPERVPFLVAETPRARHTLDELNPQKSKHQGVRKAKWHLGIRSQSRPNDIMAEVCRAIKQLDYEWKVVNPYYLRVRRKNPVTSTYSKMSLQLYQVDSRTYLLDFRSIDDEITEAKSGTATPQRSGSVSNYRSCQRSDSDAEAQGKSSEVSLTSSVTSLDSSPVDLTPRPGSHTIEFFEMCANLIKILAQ
T1 sequence (P54619 whole entry partner): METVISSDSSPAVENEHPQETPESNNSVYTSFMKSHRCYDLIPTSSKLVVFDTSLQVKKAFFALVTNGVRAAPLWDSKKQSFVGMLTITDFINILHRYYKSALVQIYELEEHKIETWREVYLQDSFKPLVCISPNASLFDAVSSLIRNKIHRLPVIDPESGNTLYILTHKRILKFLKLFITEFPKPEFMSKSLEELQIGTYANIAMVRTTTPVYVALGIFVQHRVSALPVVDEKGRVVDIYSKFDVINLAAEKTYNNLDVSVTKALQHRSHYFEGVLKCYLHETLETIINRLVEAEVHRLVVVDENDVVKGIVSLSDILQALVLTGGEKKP
The experiment is described as follows: in-cell-ELISA for phospho-ACC, Activity beta 1. The format is cell-based. The following applies: 2 h, serum free DMEM, percentage activation over vehicle control, cell line not given (HepG2 or C2C12 myotubes). The protocol:
Activation of AMPK by various compounds were measured using in-cell-ELISA for phospho-ACC (Acetyl-CoA carboxylase 1) in HepG2 cells (liver) and fully differentiated myotubes (C2C12 cells) grown in 96 well plate. Cells were treated with 1 μM of the molecule for 2 h in serum free DMEM media. After methanol fixation, cells were blocked with BSA followed by addition of anti-phospho ACC antibody (Cell Signaling) and HRP conjugated secondary antibody. Absorbance values taken at 450 nm and were normalized with total DNA (Hoechest stain). Results were expressed as percentage activation over vehicle control.
(In general: An ELISA detects its analyte on a solid surface through an enzyme-linked reagent.)
For `Cn1nc(C=C2C(=O)Nc3cc(Cl)c(-c4ccc(-c5ccccc5O)cc4)cc32)cc1C(=O)[O-].[Na+]` (mixture of isomers) [Example 21, Sodium 3-{(E/Z)-[6-chloro-5-(2′-hydroxybiphenyl-4-yl)-2-oxo-1,2-dihydro-3H-indol-3-ylidene]methyl}-1-methyl-1H-pyrazole-5-carboxylate], the “Activity beta 1 (at 1 uM)” value is reported as “* (* <20)”.

Molecule `Cc1ccc(C=C2C(=O)Nc3cc(Cl)c(-c4ccc(-c5ccccc5O)cc4)cc32)cc1CC(=O)O` (racemic) [Example 1, (5-{(E/Z)-[6-Chloro-5-(2′-hydroxybiphenyl-4-yl)-2-oxo-1,2-dihydro-3H-indol-3-ylidene]methyl}-2-methylphenyl)acetic acid] showed an activation at 1 µM greater than 40%.

Molecule `O=C(O)Cc1cc(C=C2C(=O)Nc3cc(Cl)c(-c4ccc(-c5ccccc5O)cc4)cc32)ccc1O` (racemic) [Example 12, (5-{(E/Z)-[6-Chloro-5-(2′-hydroxybiphenyl-4-yl)-2-oxo-1,2-dihydro-3H-indol-3-ylidene]methyl}-2-hydroxyphenyl)acetic acid] yielded an activation at 1 µM of less than 20%.

`Cn1ccc(C=C2C(=O)N(CC(=O)O)c3cc(Cl)c(-c4ccc(-c5ccccc5O)cc4)cc32)c1` (racemic) [Example 25, {(3E/32)-6-Chloro-5-(2′-hydroxybiphenyl-4-yl)-3-[(1-methyl-1H-pyrrol-3-yl)methylidene]-2-oxo-2,3-dihydro-1H-indol-1-yl}acetic acid] showed an activation at 1 µM of less than 20%.

`Cc1ccc(C=C2C(=O)Nc3cc(F)c(-c4cccc(-c5ccccc5O)c4)cc32)cc1CC(=O)O` (single isomer, unassigned) [Example 30, (5-{(E/Z)-[6-Fluoro-5-(2′-hydroxybiphenyl-3-yl)-2-oxo-1,2-dihydro-3H-indol-3-ylidene]methyl}-2-methylphenyl)acetic acid] returned an activation at 1 µM of less than 20%.

Turning to `Cc1ccc(C=C2C(=O)Nc3cc(F)c(-c4ccc(-c5ccccc5O)cc4)cc32)cc1C(=O)O` [Example 2], the activation at 1 µM was 20 to 40%.

`Cc1ccc(C=C2C(=O)Nc3cc(F)c(-c4ccc(-c5ccccc5O)cc4)cc32)cc1CC(=O)O` [Example 3] gave an activation at 1 µM greater than 40%.

As for `O=C(O)Cc1ccc(C=C2C(=O)Nc3cc(F)c(-c4ccc(-c5ccccc5O)cc4)cc32)cc1` [Example 4], the activation at 1 µM is less than 20%.

On to `O=C(O)Cc1cccc(C=C2C(=O)Nc3cc(F)c(-c4ccc(-c5ccccc5O)cc4)cc32)c1` [Example 5], for which the activation at 1 µM is greater than 40%.

`COc1ccc(C=C2C(=O)Nc3cc(F)c(-c4ccc(-c5ccccc5O)cc4)cc32)cc1CC(=O)O` [Example 7] displayed an activation at 1 µM greater than 40%.

In turn, `CC(=C1C(=O)Nc2cc(F)c(-c3ccc(-c4ccccc4O)cc3)cc21)c1cccc(CC(=O)O)c1` [Example 8] gave an activation at 1 µM of less than 20%.

For `Cc1ccc(C=C2C(=O)Nc3cc(Cl)c(-c4ccc(-c5ccccc5O)cc4)cc32)cc1C(=O)O` [Example 9], the activation at 1 µM is greater than 40%.

With `O=C(O)COc1cccc(C=C2C(=O)Nc3cc(Cl)c(-c4ccc(-c5ccccc5O)cc4)cc32)c1` [Example 10], the activation at 1 µM was less than 20%.

`Cn1c(C=C2C(=O)Nc3cc(Cl)c(-c4ccc(-c5ccccc5O)cc4)cc32)ccc1C(=O)O` [Example 14]: the activation at 1 µM fell in the range of 20 to 40%.

As for `O=C1Nc2cc(Cl)c(-c3ccc(-c4ccccc4O)cc3)cc2C1=Cc1ccc(C(=O)O)[nH]1` [Example 15], the activation at 1 µM is less than 20%.

`O=C1Nc2cc(Cl)c(-c3ccc(-c4ccccc4O)cc3)cc2C1=Cc1c[nH]c(C(=O)O)c1` [Example 16] returned an activation at 1 µM of less than 20%.

Molecule `Cn1cc(CC(=O)O)cc1C=C1C(=O)Nc2cc(Cl)c(-c3ccc(-c4ccccc4O)cc3)cc21` [Example 17] yielded an activation at 1 µM of less than 20%.

As for `Cc1ccc(C=C2C(=O)Nc3cc(Cl)c(-c4ccc(-c5ccccc5O)cc4)cc32)cc1` [Example 18], the activation at 1 µM is less than 20%.

As for `Cn1ccc(C=C2C(=O)Nc3cc(Cl)c(-c4ccc(-c5ccccc5O)cc4)cc32)c1` [Example 19], the activation at 1 µM was greater than 40%.

Turning to `Cn1nc(/C=C2\C(=O)Nc3cc(Cl)c(-c4ccc(-c5ccccc5O)cc4)cc32)cc1C(=O)O` [Example 20, 3-{(Z)-[6-chloro-5-(2′-hydroxybiphenyl-4-yl)-2-oxo-1,2-dihydro-3H-indol-3-ylidene]methyl}-1-methyl-1H-pyrazole-5-carboxylic acid], the activation at 1 µM is less than 20%.

The molecule `O=C1Nc2cc(Cl)c(-c3ccc(-c4ccccc4O)cc3)cc2C1=Cc1csc(C(=O)O)n1` [Example 22] registered an activation at 1 µM of less than 20%.

Take `Cn1cc(C=C2C(=O)Nc3cc(Cl)c(-c4ccc(-c5ccccc5)cc4)cc32)cc1C(=O)O` [Example 23]: the activation at 1 µM is less than 20%.

`C/C(=C1/C(=O)Nc2cc(F)c(-c3ccc(-c4ccccc4O)cc3)cc21)c1cccc(CC(=O)N2CCCC2)c1` [Example 24, (3Z)-6-Fluoro-5-(2′-hydroxybiphenyl-4-yl)-3-(1-{3-[2-oxo-2-(pyrrolidin-1-yl)ethyl]phenyl}ethylidene)-1,3-dihydro-2H-indol-2-one] showed an activation at 1 µM of less than 20%.

As to `Cn1cc(C=C2C(=O)N(CCO)c3cc(Cl)c(-c4ccc(-c5ccccc5O)cc4)cc32)cc1C(=O)O` [Example 26], the activation at 1 µM is less than 20%.

Consider `CN1C(=O)C(=Cc2cc(C(=O)O)n(C)c2)c2cc(-c3ccc(-c4ccccc4O)cc3)c(Cl)cc21` [Example 29], for which the activation at 1 µM is less than 20%.

The molecule `Cc1ccc(C=C2C(=O)Nc3cc(Cl)c(-c4ccc(-c5ccccc5O)cn4)cc32)cc1CC(=O)O` [Example 31] came in with an activation at 1 µM of less than 20%.

In turn, `Cc1ccc(C=C2C(=O)Nc3cc(Cl)c(-c4ccc(-c5ccccc5O)cn4)cc32)cc1C(=O)O` [Example 32] came in with an activation at 1 µM of less than 20%.

In turn, `Cc1ccc(C=C2C(=O)Nc3cc(Cl)c(-c4ccc(-c5ccccc5O)nc4)cc32)cc1CC(=O)O` [Example 33] displayed an activation at 1 µM of less than 20%.

As to `COc1ccc(C=C2C(=O)Nc3cc(Cl)c(-c4ccc(-c5ccccc5O)cn4)cc32)cc1CC(=O)O` [Example 34], the activation at 1 µM is less than 20%.

`O=C(O)Cc1cccc(C=C2C(=O)Nc3cc(Cl)c(-c4ccc(-c5ccccc5O)nc4)cc32)c1` [Example 35] showed an activation at 1 µM of less than 20%.

Regarding `Cc1ccc(C=C2C(=O)Nc3cc(Cl)c(-c4ccc(-c5ccccc5O)cc4)nc32)cc1CC(=O)O` [Example 36], the activation at 1 µM fell in the range of 20 to 40%.

`COc1ccc(C=C2C(=O)Nc3cc(Cl)c(-c4ccc(-c5ccccc5O)cc4)nc32)cc1CC(=O)O` [Example 37] had an activation at 1 µM greater than 40%.

As to `COc1ccc(C=C2C(=O)Nc3cc(Cl)c(-c4ccc(-c5ccccc5O)cc4)nc32)cc1C(=O)O` [Example 38], the activation at 1 µM lay within 20 to 40%.

Regarding `Cc1ccc(C=C2C(=O)Nc3cc(Cl)c(-c4ccc(-c5ccncc5)cc4)cc32)cc1CC(=O)O` [Example 39], the activation at 1 µM lay within 20 to 40%.

With `Cn1cc(C=C2C(=O)Nc3cc(F)c(-c4ccc(-c5ccncc5)cc4)cc32)cc1C(=O)O` [Example 43], the activation at 1 µM is less than 20%.

`Cc1ccc(C=C2C(=O)Nc3cc(F)c(-c4ccc(-c5ccncc5)cc4)cc32)cc1CC(=O)O` [Example 44] registered an activation at 1 µM of less than 20%.

`Cc1ccc(C=C2C(=O)Nc3cc(Cl)c(-c4ncc(-c5ccccc5O)cn4)cc32)cc1CC(=O)O` [Example 45]: the activation at 1 µM is less than 20%.

On to `COc1ccc(C=C2C(=O)Nc3cc(Cl)c(-c4ncc(-c5ccccc5O)cn4)cc32)cc1CC(=O)O` [Example 46], for which the activation at 1 µM was less than 20%.

For the molecule `COc1ccc(C=C2C(=O)Nc3cc(Cl)c(-c4ccc(-c5ccc(-n6cccn6)cc5)cc4)cc32)cc1CC(=O)O` [Example 49], the activation at 1 µM was greater than 40%.

`Cc1ccc(C=C2C(=O)Nc3cc(Cl)c(-c4ccc(-c5ccc(-n6cncn6)cc5)cc4)cc32)cc1CC(=O)O` [Example 50] gave an activation at 1 µM of 20 to 40%.

`O=C(O)Cc1cccc(C=C2C(=O)Nc3cc(Cl)c(-c4ccc(-c5ccc(-n6cncn6)cc5)cc4)cc32)c1` [Example 52] came in with an activation at 1 µM greater than 40%.

In the case of `COc1ccc(C=C2C(=O)Nc3cc(F)c(-c4ccc(-c5ccc(-n6cncn6)cc5)cc4)cc32)cc1CC(=O)O` [Example 59], the activation at 1 µM is greater than 40%.

For the molecule `COc1ccc(C=C2C(=O)Nc3cc(Cl)c(-c4ccc(-c5ccc(-n6cncn6)cc5)c(F)c4)cc32)cc1CC(=O)O` [Example 60], the activation at 1 µM is greater than 40%.

`Cc1ccc(C=C2C(=O)Nc3cc(F)c(-c4ccc(-c5ccc(-n6cccn6)cc5)cc4)cc32)cc1C(=O)O` [Example 61]: the activation at 1 µM was greater than 40%.

The molecule `Cn1cc(C=C2C(=O)Nc3cc(Cl)c(-c4ccc(-c5ccc(-n6cncn6)cc5)cc4)cc32)cc1C(=O)O` [Example 63] had an activation at 1 µM greater than 40%.

For the molecule `Cc1ccc(C=C2C(=O)Nc3cc(F)c(-c4ccc(-c5ccc(-n6ccnn6)cc5)cc4)cc32)cc1C(=O)O` [Example 64], the activation at 1 µM was greater than 40%.

`Cc1ccc(C=C2C(=O)Nc3cc(F)c(-c4ccc(-c5ccc(-n6cncn6)cc5)cc4)cc32)cc1C(=O)O` [Example 65]: the activation at 1 µM was greater than 40%.

The molecule `COc1ccc(C=C2C(=O)Nc3cc(Cl)c(-c4ccc(-c5ccc(-n6ccnc6C)cc5)cc4)cc32)cc1CC(=O)O` [Example 66] came in with an activation at 1 µM of less than 20%.

Molecule `Cn1c(C=C2C(=O)Nc3cc(Cl)c(-c4ccc(-c5ccc(-n6cncn6)cc5)cc4)cc32)ccc1C(=O)O` [Example 69] yielded an activation at 1 µM greater than 40%.
